In paper PMC12136037, “Type II kinase inhibitors that target Parkinson’s disease–associated LRRK2” (Science Advances, 2025):

How the values were obtained:
Assay in all cases: 33PanQinase kinome-wide selectivity profile (Reaction Biology)
Type in all cases: biochemical
350 wild-type kinases [1] = molecular target: T1, 350 wild-type kinases (Homo sapiens, UniProt P50750); conditions: singlicate; for Residual activity (% of control), CDK9/CycK: kinase CDK9/CycK, ATP 1 µM; for Residual activity (% of control), CDK9/CycT1: kinase CDK9/CycT1, ATP 0,3 µM
T1 construct: purchased Reaction Biology (assay service)
T1 sequence (P50750 whole entry): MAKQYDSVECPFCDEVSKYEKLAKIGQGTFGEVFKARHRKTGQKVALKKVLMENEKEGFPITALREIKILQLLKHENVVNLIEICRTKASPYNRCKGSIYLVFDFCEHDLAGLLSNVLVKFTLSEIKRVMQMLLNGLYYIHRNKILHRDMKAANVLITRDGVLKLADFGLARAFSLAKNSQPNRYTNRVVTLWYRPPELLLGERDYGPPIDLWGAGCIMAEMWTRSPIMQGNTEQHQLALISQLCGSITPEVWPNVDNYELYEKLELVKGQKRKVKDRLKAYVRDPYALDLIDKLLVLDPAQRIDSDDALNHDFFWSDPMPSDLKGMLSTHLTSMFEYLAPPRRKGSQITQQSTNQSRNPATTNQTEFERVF
Experimental: (§1) Compound RN341 was tested at two concentrations of 1 and 10 μM against a panel of 350 wild-type kinases in the ^33PanQinase assay. The assay was performed by Reaction Biology (www.reactionbiology.com/services/kinase-assays/kinase-panel-screening/).

350 wild-type kinases [2] = molecular target: T2, 350 wild-type kinases (Homo sapiens, UniProt P15056); conditions: kinase BRAF, ATP 1 µM, singlicate
T2 construct: purchased Reaction Biology (assay service)
T2 sequence (P15056 whole entry): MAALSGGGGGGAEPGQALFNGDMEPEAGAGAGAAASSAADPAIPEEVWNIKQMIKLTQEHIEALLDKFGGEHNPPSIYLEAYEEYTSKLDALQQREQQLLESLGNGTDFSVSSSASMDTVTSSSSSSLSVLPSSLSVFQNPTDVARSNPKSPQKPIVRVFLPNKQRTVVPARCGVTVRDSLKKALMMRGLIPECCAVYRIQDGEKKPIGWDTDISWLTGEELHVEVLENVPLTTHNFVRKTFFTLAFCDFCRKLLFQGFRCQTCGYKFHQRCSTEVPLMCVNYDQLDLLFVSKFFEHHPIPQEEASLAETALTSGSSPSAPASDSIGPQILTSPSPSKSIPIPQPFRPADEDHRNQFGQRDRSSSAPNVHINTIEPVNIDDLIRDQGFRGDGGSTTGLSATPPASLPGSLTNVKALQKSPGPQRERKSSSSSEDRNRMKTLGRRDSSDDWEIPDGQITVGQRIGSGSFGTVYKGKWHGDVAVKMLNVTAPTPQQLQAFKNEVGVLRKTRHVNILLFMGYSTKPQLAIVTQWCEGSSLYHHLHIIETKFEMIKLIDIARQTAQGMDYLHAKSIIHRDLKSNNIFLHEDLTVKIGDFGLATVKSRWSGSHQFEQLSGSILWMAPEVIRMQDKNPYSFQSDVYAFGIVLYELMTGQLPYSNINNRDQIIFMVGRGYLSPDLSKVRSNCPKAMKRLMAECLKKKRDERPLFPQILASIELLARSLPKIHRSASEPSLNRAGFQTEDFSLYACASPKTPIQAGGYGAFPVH
Experimental: as §1

350 wild-type kinases [3] = molecular target: T3, 350 wild-type kinases (Homo sapiens, UniProt O60285); conditions: kinase ARK5, ATP 3 µM, singlicate
T3 construct: purchased Reaction Biology (assay service)
Experimental: as §1

350 wild-type kinases [4] = molecular target: T4, 350 wild-type kinases (Homo sapiens, UniProt Q8IU85); conditions: kinase CAMK1D, ATP 0,3 µM, singlicate
T4 construct: purchased Reaction Biology (assay service)
Experimental: as §1

350 wild-type kinases [5] = molecular target: T5, 350 wild-type kinases (Homo sapiens, UniProt Q9NYV4); conditions: kinase CDK12/CycK, ATP 0,3 µM, singlicate
T5 construct: purchased Reaction Biology (assay service)
T5 sequence (Q9NYV4 whole entry): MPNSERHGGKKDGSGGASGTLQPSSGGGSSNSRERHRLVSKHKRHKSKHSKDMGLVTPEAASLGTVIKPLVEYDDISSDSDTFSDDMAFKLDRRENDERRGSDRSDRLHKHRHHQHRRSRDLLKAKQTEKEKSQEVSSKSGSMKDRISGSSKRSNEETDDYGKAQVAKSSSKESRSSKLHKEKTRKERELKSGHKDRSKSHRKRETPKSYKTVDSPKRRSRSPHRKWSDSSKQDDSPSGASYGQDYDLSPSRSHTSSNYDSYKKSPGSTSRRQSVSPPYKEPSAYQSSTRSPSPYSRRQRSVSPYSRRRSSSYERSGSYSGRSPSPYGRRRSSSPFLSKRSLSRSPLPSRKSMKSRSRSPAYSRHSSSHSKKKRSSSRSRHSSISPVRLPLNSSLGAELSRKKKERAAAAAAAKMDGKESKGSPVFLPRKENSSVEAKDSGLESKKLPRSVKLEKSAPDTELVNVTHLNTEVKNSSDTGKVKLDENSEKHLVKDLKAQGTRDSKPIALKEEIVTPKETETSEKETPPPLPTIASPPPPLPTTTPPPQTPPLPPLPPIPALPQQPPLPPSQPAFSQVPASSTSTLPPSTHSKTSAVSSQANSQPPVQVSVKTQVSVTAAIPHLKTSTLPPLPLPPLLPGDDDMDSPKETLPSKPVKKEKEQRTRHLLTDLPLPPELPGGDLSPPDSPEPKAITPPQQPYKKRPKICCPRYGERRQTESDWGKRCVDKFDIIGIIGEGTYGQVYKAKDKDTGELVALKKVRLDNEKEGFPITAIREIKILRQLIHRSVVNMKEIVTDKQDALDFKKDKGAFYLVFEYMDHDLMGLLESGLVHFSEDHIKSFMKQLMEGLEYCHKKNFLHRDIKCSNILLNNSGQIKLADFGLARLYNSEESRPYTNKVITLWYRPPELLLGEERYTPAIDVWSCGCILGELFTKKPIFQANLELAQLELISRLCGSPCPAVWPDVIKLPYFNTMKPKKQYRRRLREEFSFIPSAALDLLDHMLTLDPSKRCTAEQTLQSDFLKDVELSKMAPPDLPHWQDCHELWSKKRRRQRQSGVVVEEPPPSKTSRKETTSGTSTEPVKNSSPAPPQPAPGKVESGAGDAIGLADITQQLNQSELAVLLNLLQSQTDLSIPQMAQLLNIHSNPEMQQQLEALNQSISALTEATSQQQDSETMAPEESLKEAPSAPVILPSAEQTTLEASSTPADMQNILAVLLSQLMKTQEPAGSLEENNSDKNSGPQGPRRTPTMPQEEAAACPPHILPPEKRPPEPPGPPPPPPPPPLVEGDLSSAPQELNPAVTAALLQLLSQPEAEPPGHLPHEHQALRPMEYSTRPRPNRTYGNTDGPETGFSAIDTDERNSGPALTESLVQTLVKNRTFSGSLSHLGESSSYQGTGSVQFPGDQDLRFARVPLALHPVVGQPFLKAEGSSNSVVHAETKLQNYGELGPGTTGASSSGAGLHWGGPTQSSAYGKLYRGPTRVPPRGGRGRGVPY
Experimental: as §1

350 wild-type kinases [6] = molecular target: T6, 350 wild-type kinases (Homo sapiens, UniProt P53355); conditions: kinase DAPK1, ATP 0,1 µM, singlicate
T6 construct: purchased Reaction Biology (assay service)
Experimental: as §1

350 wild-type kinases [7] = molecular target: T7, 350 wild-type kinases (Homo sapiens, UniProt P49674); conditions: kinase CK1epsilon, ATP 0,3 µM, singlicate
T7 construct: purchased Reaction Biology (assay service)
Experimental: as §1

350 wild-type kinases [8] = molecular target: T8, 350 wild-type kinases (Homo sapiens, UniProt Q9Y6M4); conditions: kinase CK1gamma3, ATP 0,1 µM, singlicate
T8 construct: purchased Reaction Biology (assay service)
Experimental: as §1

350 wild-type kinases [9] = molecular target: T9, 350 wild-type kinases (Homo sapiens, UniProt P49759); conditions: kinase CLK1, ATP 0,3 µM, singlicate
T9 construct: purchased Reaction Biology (assay service)
Experimental: as §1

350 wild-type kinases [10] = molecular target: T10, 350 wild-type kinases (Homo sapiens, UniProt O43293); conditions: kinase DAPK3, ATP 0,1 µM, singlicate
T10 construct: purchased Reaction Biology (assay service)
Experimental: as §1

350 wild-type kinases [11] = molecular target: T11, 350 wild-type kinases (Homo sapiens, UniProt P00519); conditions: kinase ABL1, ATP 0,3 µM, singlicate
T11 construct: purchased Reaction Biology (assay service)
Experimental: as §1

350 wild-type kinases [12] = molecular target: T12, 350 wild-type kinases (Homo sapiens, UniProt Q13882); conditions: kinase BRK, ATP 3 µM, singlicate
T12 construct: purchased Reaction Biology (assay service)
Experimental: as §1

350 wild-type kinases [13] = molecular target: T13, 350 wild-type kinases (Homo sapiens, UniProt Q9BWU1); conditions: kinase CDK19/CycC, ATP 3 µM, singlicate
T13 construct: purchased Reaction Biology (assay service)
Experimental: as §1

350 wild-type kinases [14] = molecular target: T14, 350 wild-type kinases (Homo sapiens, UniProt Q09013); conditions: kinase DMPK, ATP 0,1 µM, singlicate
T14 construct: purchased Reaction Biology (assay service)
Experimental: as §1

350 wild-type kinases [15] = molecular target: T15, 350 wild-type kinases (Homo sapiens, UniProt P41240); conditions: kinase CSK, ATP 1 µM, singlicate
T15 construct: purchased Reaction Biology (assay service)
Experimental: as §1

350 wild-type kinases [16] = molecular target: T16, 350 wild-type kinases (Homo sapiens, UniProt O60566); conditions: kinase BUB1B, ATP 0,3 µM, singlicate
T16 construct: purchased Reaction Biology (assay service)
T16 sequence (O60566 whole entry): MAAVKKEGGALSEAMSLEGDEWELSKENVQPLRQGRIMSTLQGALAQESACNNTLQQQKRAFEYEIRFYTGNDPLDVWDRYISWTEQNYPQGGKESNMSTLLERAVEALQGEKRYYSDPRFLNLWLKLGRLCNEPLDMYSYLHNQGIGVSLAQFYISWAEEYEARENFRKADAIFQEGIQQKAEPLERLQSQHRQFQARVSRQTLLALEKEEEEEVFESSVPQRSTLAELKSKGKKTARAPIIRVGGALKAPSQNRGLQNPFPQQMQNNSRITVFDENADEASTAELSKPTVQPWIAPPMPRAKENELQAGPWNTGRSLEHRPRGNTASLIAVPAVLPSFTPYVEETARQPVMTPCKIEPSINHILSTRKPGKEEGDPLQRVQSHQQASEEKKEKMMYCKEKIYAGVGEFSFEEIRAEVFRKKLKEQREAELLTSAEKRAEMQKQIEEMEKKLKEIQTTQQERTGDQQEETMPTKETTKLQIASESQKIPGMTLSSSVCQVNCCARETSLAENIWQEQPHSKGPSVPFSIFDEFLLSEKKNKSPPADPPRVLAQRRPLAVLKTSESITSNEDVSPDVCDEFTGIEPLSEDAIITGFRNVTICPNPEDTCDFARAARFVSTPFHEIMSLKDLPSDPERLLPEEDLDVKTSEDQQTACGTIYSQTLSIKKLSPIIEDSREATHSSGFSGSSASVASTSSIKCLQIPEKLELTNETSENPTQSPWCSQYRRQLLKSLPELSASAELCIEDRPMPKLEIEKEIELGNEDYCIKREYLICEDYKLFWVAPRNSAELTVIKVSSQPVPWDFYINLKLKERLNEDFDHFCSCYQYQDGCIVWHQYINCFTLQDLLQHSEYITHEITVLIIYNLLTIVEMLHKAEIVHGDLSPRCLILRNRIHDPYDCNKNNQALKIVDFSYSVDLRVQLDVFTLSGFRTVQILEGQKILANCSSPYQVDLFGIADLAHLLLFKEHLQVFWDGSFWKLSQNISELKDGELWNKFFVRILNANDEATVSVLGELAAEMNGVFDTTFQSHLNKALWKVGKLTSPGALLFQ
Experimental: as §1

350 wild-type kinases [17] = molecular target: T17, 350 wild-type kinases (Homo sapiens, UniProt P37023); conditions: kinase ACVRL1, ATP 1 µM, singlicate
T17 construct: purchased Reaction Biology (assay service)
Experimental: as §1

350 wild-type kinases [18] = molecular target: T18, 350 wild-type kinases (Homo sapiens, UniProt Q8IZL9); conditions: singlicate; for Residual activity (% of control), CDK20/CycH: kinase CDK20/CycH, ATP 0,1 µM; for Residual activity (% of control), CDK20/CycT1: kinase CDK20/CycT1, ATP 1 µM
T18 construct: purchased Reaction Biology (assay service)
T18 sequence (Q8IZL9 whole entry): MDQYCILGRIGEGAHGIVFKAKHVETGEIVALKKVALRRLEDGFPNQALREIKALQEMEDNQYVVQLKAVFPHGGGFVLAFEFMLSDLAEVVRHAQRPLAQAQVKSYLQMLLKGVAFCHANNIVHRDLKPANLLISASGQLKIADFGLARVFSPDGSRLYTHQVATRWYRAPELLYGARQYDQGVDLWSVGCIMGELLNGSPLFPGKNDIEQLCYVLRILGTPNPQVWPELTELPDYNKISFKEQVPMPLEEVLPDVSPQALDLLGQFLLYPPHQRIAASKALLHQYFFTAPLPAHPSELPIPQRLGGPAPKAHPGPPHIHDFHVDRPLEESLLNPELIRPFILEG
Experimental: as §1

350 wild-type kinases [19] = molecular target: T19, 350 wild-type kinases (Homo sapiens, UniProt O00238); conditions: kinase BMPR1B, ATP 3 µM, singlicate
T19 construct: purchased Reaction Biology (assay service)
Experimental: as §1

350 wild-type kinases [20] = molecular target: T20, 350 wild-type kinases (Homo sapiens, UniProt P31751); conditions: kinase AKT2, ATP 10 µM, singlicate
T20 construct: purchased Reaction Biology (assay service)
Experimental: as §1

350 wild-type kinases [21] = molecular target: T21, 350 wild-type kinases (Homo sapiens, UniProt P21127); conditions: kinase CDK11B/CycK, ATP 0,1 µM, singlicate
T21 construct: purchased Reaction Biology (assay service)
Experimental: as §1

350 wild-type kinases [22] = molecular target: T22, 350 wild-type kinases (Homo sapiens, UniProt Q16566); conditions: kinase CAMK4, ATP 1 µM, singlicate
T22 construct: purchased Reaction Biology (assay service)
T22 sequence (Q16566 whole entry): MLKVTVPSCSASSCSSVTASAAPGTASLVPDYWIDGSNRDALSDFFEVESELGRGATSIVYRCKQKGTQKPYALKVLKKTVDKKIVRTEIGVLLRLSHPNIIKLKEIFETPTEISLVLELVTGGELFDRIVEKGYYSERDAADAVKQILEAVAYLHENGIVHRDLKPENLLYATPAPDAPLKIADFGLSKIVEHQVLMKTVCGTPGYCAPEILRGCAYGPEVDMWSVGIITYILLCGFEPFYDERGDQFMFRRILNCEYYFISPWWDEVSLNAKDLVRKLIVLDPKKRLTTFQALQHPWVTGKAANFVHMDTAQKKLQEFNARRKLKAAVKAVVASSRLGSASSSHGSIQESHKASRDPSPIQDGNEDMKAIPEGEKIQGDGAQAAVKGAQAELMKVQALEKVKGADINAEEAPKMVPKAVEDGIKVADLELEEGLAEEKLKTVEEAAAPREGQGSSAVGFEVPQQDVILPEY
Experimental: as §1

350 wild-type kinases [23] = molecular target: T23, 350 wild-type kinases (Homo sapiens, UniProt Q8N5S9); conditions: kinase CAMKK1, ATP 3 µM, singlicate
T23 construct: purchased Reaction Biology (assay service)
T23 sequence (Q8N5S9 whole entry): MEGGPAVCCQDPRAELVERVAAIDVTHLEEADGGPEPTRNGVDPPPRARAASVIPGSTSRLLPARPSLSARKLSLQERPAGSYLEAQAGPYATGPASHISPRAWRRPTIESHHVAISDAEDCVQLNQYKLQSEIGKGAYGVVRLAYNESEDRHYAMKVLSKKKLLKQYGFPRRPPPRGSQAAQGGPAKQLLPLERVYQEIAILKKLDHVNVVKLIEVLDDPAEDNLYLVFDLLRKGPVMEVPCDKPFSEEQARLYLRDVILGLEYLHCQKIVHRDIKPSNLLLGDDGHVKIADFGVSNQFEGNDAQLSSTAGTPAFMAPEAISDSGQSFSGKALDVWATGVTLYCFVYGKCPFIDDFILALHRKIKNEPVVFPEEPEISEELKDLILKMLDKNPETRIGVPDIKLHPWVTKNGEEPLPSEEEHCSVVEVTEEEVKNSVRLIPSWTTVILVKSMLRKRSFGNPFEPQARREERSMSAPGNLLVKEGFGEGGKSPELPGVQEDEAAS
Experimental: as §1

`CCSc1nc(NC)c2c(-c3cccc(NC(=O)Nc4cc(C(C)(C)C)nn4-c4ccc(C)cc4)c3)c[nH]c2n1` [Compound 32] was tested, and the “Residual activity (% of control), CDK9/CycK” value (350 wild-type kinases [1]; Assay Conc. 1.0E-05 M) was 86 % of control, the “Residual activity (% of control), CDK9/CycK” value (350 wild-type kinases [1]; Assay Conc. 1.0E-06 M) was 111 % of control and the “Residual activity (% of control), CDK9/CycT1” value (350 wild-type kinases [1]; Assay Conc. 1.0E-05 M) was 85 % of control. For the same molecule, the “Residual activity (% of control), CDK9/CycT1” value (350 wild-type kinases [1]; Assay Conc. 1.0E-06 M) was 106 % of control, the “Residual activity (% of control), BRAF” value (350 wild-type kinases [2]; Assay Conc. 1.0E-05 M) was 65 % of control and the “Residual activity (% of control), BRAF” value (350 wild-type kinases [2]; Assay Conc. 1.0E-06 M) was 98 % of control. For the same molecule, the “Residual activity (% of control), ARK5” value (350 wild-type kinases [3]; Assay Conc. 1.0E-05 M) was 99 % of control, the “Residual activity (% of control), ARK5” value (350 wild-type kinases [3]; Assay Conc. 1.0E-06 M) was 105 % of control and the “Residual activity (% of control), CAMK1D” value (350 wild-type kinases [4]; Assay Conc. 1.0E-05 M) was 101 % of control. The “Residual activity (% of control), CAMK1D” value (350 wild-type kinases [4]; Assay Conc. 1.0E-06 M) was 113 % of control, the “Residual activity (% of control), CDK12/CycK” value (350 wild-type kinases [5]; Assay Conc. 1.0E-05 M) was 87 % of control and the “Residual activity (% of control), CDK12/CycK” value (350 wild-type kinases [5]; Assay Conc. 1.0E-06 M) was 99 % of control. For the same molecule, the “Residual activity (% of control), DAPK1” value (350 wild-type kinases [6]; Assay Conc. 1.0E-05 M) was 78 % of control, the “Residual activity (% of control), DAPK1” value (350 wild-type kinases [6]; Assay Conc. 1.0E-06 M) was 95 % of control and the “Residual activity (% of control), CK1epsilon” value (350 wild-type kinases [7]; Assay Conc. 1.0E-05 M) was 74 % of control. The “Residual activity (% of control), CK1epsilon” value (350 wild-type kinases [7]; Assay Conc. 1.0E-06 M) was 97 % of control, the “Residual activity (% of control), CK1gamma3” value (350 wild-type kinases [8]; Assay Conc. 1.0E-05 M) was 99 % of control and the “Residual activity (% of control), CK1gamma3” value (350 wild-type kinases [8]; Assay Conc. 1.0E-06 M) was 106 % of control. For the same molecule, the “Residual activity (% of control), CLK1” value (350 wild-type kinases [9]; Assay Conc. 1.0E-05 M) was 54 % of control, the “Residual activity (% of control), CLK1” value (350 wild-type kinases [9]; Assay Conc. 1.0E-06 M) was 86 % of control and the “Residual activity (% of control), DAPK3” value (350 wild-type kinases [10]; Assay Conc. 1.0E-05 M) was 82 % of control. For the same molecule, the “Residual activity (% of control), DAPK3” value (350 wild-type kinases [10]; Assay Conc. 1.0E-06 M) was 98 % of control, the “Residual activity (% of control), ABL1” value (350 wild-type kinases [11]; Assay Conc. 1.0E-05 M) was 70 % of control and the “Residual activity (% of control), ABL1” value (350 wild-type kinases [11]; Assay Conc. 1.0E-06 M) was 102 % of control. The “Residual activity (% of control), BRK” value (350 wild-type kinases [12]; Assay Conc. 1.0E-05 M) was 79 % of control, the “Residual activity (% of control), BRK” value (350 wild-type kinases [12]; Assay Conc. 1.0E-06 M) was 109 % of control and the “Residual activity (% of control), CDK19/CycC” value (350 wild-type kinases [13]; Assay Conc. 1.0E-05 M) was 54 % of control. For the same molecule, the “Residual activity (% of control), CDK19/CycC” value (350 wild-type kinases [13]; Assay Conc. 1.0E-06 M) was 97 % of control, the “Residual activity (% of control), DMPK” value (350 wild-type kinases [14]; Assay Conc. 1.0E-05 M) was 69 % of control and the “Residual activity (% of control), DMPK” value (350 wild-type kinases [14]; Assay Conc. 1.0E-06 M) was 106 % of control. The “Residual activity (% of control), CSK” value (350 wild-type kinases [15]; Assay Conc. 1.0E-05 M) was 69 % of control, the “Residual activity (% of control), CSK” value (350 wild-type kinases [15]; Assay Conc. 1.0E-06 M) was 97 % of control and the “Residual activity (% of control), BUB1B” value (350 wild-type kinases [16]; Assay Conc. 1.0E-05 M) was 85 % of control. The “Residual activity (% of control), BUB1B” value (350 wild-type kinases [16]; Assay Conc. 1.0E-06 M) was 119 % of control, the “Residual activity (% of control), ACVRL1” value (350 wild-type kinases [17]; Assay Conc. 1.0E-05 M) was 80 % of control and the “Residual activity (% of control), ACVRL1” value (350 wild-type kinases [17]; Assay Conc. 1.0E-06 M) was 97 % of control. The “Residual activity (% of control), CDK20/CycH” value (350 wild-type kinases [18]; Assay Conc. 1.0E-05 M) was 87 % of control, the “Residual activity (% of control), CDK20/CycH” value (350 wild-type kinases [18]; Assay Conc. 1.0E-06 M) was 103 % of control and the “Residual activity (% of control), CDK20/CycT1” value (350 wild-type kinases [18]; Assay Conc. 1.0E-05 M) was 84 % of control. For the same molecule, the “Residual activity (% of control), CDK20/CycT1” value (350 wild-type kinases [18]; Assay Conc. 1.0E-06 M) was 99 % of control, the “Residual activity (% of control), BMPR1B” value (350 wild-type kinases [19]; Assay Conc. 1.0E-05 M) was 102 % of control and the “Residual activity (% of control), BMPR1B” value (350 wild-type kinases [19]; Assay Conc. 1.0E-06 M) was 109 % of control. The “Residual activity (% of control), AKT2” value (350 wild-type kinases [20]; Assay Conc. 1.0E-05 M) was 88 % of control, the “Residual activity (% of control), AKT2” value (350 wild-type kinases [20]; Assay Conc. 1.0E-06 M) was 117 % of control and the “Residual activity (% of control), CDK11B/CycK” value (350 wild-type kinases [21]; Assay Conc. 1.0E-05 M) was 99 % of control. The “Residual activity (% of control), CDK11B/CycK” value (350 wild-type kinases [21]; Assay Conc. 1.0E-06 M) was 96 % of control, the “Residual activity (% of control), CAMK4” value (350 wild-type kinases [22]; Assay Conc. 1.0E-05 M) was 100 % of control and the “Residual activity (% of control), CAMK4” value (350 wild-type kinases [22]; Assay Conc. 1.0E-06 M) was 113 % of control. For the same molecule, the “Residual activity (% of control), CAMKK1” value (350 wild-type kinases [23]; Assay Conc. 1.0E-05 M) was 122 % of control and the “Residual activity (% of control), CAMKK1” value (350 wild-type kinases [23]; Assay Conc. 1.0E-06 M) was 114 % of control.
